{"source": "paper PMC11065314", "about": "“Identification of compounds that cause axonal dieback without cytotoxicity in dorsal root ganglia explants and intervertebral disc cells with potential to treat pain via denervation” (PLOS ONE, 2024)", "key": {"[1]": {"design": "method as in PMID 30888737", "conditions": "intraarticular injection; cited from earlier work"}, "rat DRG explants": {"system": "rat DRG explants", "assay": "DRG cytotoxicity assessment using LDH assay", "format": "cell-based", "conditions": "for Cytotoxicity (%): single well; for Overall cytotoxicity lower compared to lysed DRGs: all concentrations tested, day 3", "procedure": "(§1) 500 nM Imy and 10 nM Vcr were excluded from female rat DRG experiments while 500 nM Vcr and 1 mM Pyr were excluded from male rat DRG experiments due to insufficient DRG replicates with axon outgrowth. DRG media was removed from wells and transferred into a 96-well plate for pre-treat LDH cytotoxicity assay (see Methods below). 300 μL of media treatment solutions or solvent control solutions were added to wells. DRGs were incubated with treatment solutions for three days, and brightfield images at 4X magnification were taken using BioTek Cytation1 Plate Imager (Agilent) before treatment (day -1) and on days 1, 2 and 3 after treatment. DRGs from adult male and female rats were tested to determine if sex can affect axonal dieback. In total, 12 to 15 DRG replicates per group by sex harvested from n = 3 male and n = 3 female rats were tested.\n(§2) Lactate dehydrogenase (LDH) is a cytosolic enzyme present in all cells. Dissociated rat DRG neurons release LDH during tunicamycin-induced apoptosis. […] An ideal axonal dieback compound should cause axonal degeneration without neurotoxicity. was assessed on day 3 post-treat and normalized to pre-treat levels to account for variability in DRG size and growth and calculated as a percentage of cytotoxicity to lysed DRGs (positive control). 50 μL of pre-treatment and post-treatment media were aliquoted in duplicates into a 96-well plate. LDH activity in the media post-treat was assessed using the CyQUANT^TM LDH Cytotoxicity Assay Kit (Thermo Fisher Scientific, C20301) according to the manufacturer’s instructions. Briefly, 50 μL of Substrate Mix was added to each well and then incubated at room temperature for 30 minutes protected from light. 50 μL of Stop solution was added to each well and the absorbance at 490 nm and 680 nm was measured using a microplate reader (Agilent). LDH activity of each DRG was calculated as the difference between absorbance at 490 nm after subtracting the background absorbance at 680 nm. As a positive control, 13 female rat DRGs and 15 male rat DRGs were treated for three days with Lysis buffer solution, provided in the kit, diluted 1:5.45 in DRG media. The percentage of cytotoxicity was calculated following Eq 2. Pre-treat levels of LDH activity were subtracted from post-treat LDH activity in each DRG to remove baseline LDH activity then percentage of cytotoxicity compared to positive control lysed DRG LDH activity was calculated. Sex is a biological factor that can influence neurotoxicity. Thus, percentage of cytotoxicity of total 11 to 14 DRG replicates per group by sex from n = 3 male and n = 3 female rats were tested.\n(§3) Cytotoxicity(%)=(PosttreatLDHactivity)−(PretreatLDHactivity)/(MaximumLDHactivityfromlysedDRGs)−(PretreatLDHactivity)×100% (2)"}, "[2]": {"system": "dissociated neonatal DRG neurons", "design": "method as in PMID 7617165", "conditions": "30 μM, within 24 hours; cited from earlier work"}, "adult rat DRG explants": {"system": "adult rat DRG explants", "format": "cell-based"}, "[3]": {"assay": "DRG cytotoxicity assessment using LDH assay", "format": "cell-based, rat", "conditions": "female, rat, rat dorsal root ganglion (DRG) explants, female rat DRG explant, single well", "procedure": "as §1, §2, §3"}, "sciatic nerves": {"system": "sciatic nerves", "design": "method as in PMID 3126271", "conditions": "applied onto sciatic nerves; cited from earlier work"}, "Human NP cells [4]": {"system": "Human NP cells", "assay": "NP cell metabolic activity (AlamarBlue reduction)", "format": "cell-based", "procedure": "(§4) Nucleus pulposus (NP) cells are native matrix-producing cells at the core of intervertebral discs. To repurpose axonal dieback compounds to denervate aberrant nerve fibers in discs related to chronic LBP, the cytocompatibility of these compounds with NP cells must be evaluated. Human NP cells (Sciencell, 4800) from donor 1 (Lot #5954) and donor 2 (Lot# 21579) were cultured according to previously established protocol in our lab adapted from manufacturer’s instructions. Briefly, passage three cells from both donors were expanded in Poly-L-lysine (PLL) (Sciencell, 413) coated T75 flasks. Cells were then lifted and reseeded at 5,000 cells/cm^2 onto two PLL-coated 48-well plates (Greiner Bio-One, 677180) and allowed to attach overnight before treating with Pyr or Vcr. One plate was used for LIVE/DEAD staining and the other plate was used for AlamarBlue assay as described below. Complete NP cell media (Sciencell, 4801) containing basal media supplemented with 1% penicillin-streptomycin, 1% growth supplement and 2% FBS were used for maintaining cells in culture. To mimic the hypoxic disc environment, NP cells were cultured in a hypoxia chamber (Stem Cell Technologies, 27310) with 5% CO2, 3.5% O2, 91.5% N2 (Airgas) during the entire culture and treatment incubation period.\n(§5) Pyr stock solution was diluted in complete NP media to achieve final concentrations of 500 μM, 1 mM and 2 mM Pyr. 16.9 μg/mL and 169 μg/mL Vcr stock solutions were prepared in 1X PBS then diluted in complete NP media to achieve final concentrations of 10, 25, 50, 100 nM and 200, 500 nM, respectively. Cells were incubated with 250 μL of final treatment solutions in duplicate wells per donor for three days. Cells in negative control group were incubated with 250 μL of complete NP media with 0.55% v/v 1X PBS as solvent control. On day 3 post-treatment, brightfield images at 4X magnification were taken using a BioTek Cytation1 Plate Imager (Agilent) to verify cell proliferation and observe cell morphology. Three experimental replicates were performed for each cell donor.\nOn day 3 of incubation with drugs, 25 μL (10% v/v of media volume) of AlamarBlue HS cell viability reagent (Thermo Fisher Scientific, A50100) were added into each well. Cells were incubated with the AlamarBlue reagent for 2 hours at 37°C under hypoxia then 60 μL aliquots of cell media were removed in duplicates into a 96-well plate. The absorbance at 570 and 600 nm were read using a microplate reader (Agilent) and calculations for AlamarBlue reduction were calculated according to the manufacturer’s protocol. To account for different cell confluency between donors and groups, AlamarBlue reduction was normalized to estimated total number of cells per well obtained from LIVE/DEAD staining. Cellular metabolic activity in treated groups was reported as a ratio of normalized AlamarBlue reduction to PBS control group."}, "[5]": {"assay": "Quantification of viable NP cells (LIVE/DEAD staining)", "format": "cell-based, human", "conditions": "both sexes, human; 500 μM, 1 mM and 2 mM, day 3 post-treatment, either donor; read-out: Percentage of viable cells", "procedure": "as §4, §5\n(§6) On day 3 of incubation with drug, media treatment solutions were removed from each well and cells were carefully rinsed with 200 μL of sterile 1X PBS to remove excess media. NP cells were stained with 150 μL of 2 μM Calcein AM and 6 μM EtHD-1 solution from LIVE/DEAD Viability/Cytotoxicity Kit (Thermo Fisher Scientific, L3224) for 30 minutes at room temperature protected from light. After staining, cells were gently rinsed with 200 μL sterile 1X PBS to remove excess staining solution. Excitation and emission wavelengths for live cell fluorescence is 495 and 515 nm and dead cell fluorescence is 495 and 635 nm. Using a BioTek Cytation1 Plate Imager (Agilent), GFP filter cube (Agilent, 1225101, ex: 451.5–486.5 nm, em: 505.5–544.5 nm) and RFP filter cubes (Agilent, 1225103, ex: 511-551nm, em: 573–613 nm), fluorescent images at 4X magnification of four regions per well were taken. Gen5 v3.11 software (Agilent) was used to count green (live) and orange (dead) cells in fluorescent images. Dead NP cell staining was verified and evident by positive EtHD-1 orange staining in kill control wells where cells were treated with 70% EtOH for 10 minutes (S4 Fig). Percentage of live cells were calculated by calculating the percentage of live cells over total cell counts as shown in Eq 3.\n(§7) Cellviability(%)=Livecellcounts/Livecellcounts+Deadcellcounts×100% (3)"}, "Human NP cells [6]": {"system": "Human NP cells", "assay": "Quantification of viable NP cells (LIVE/DEAD staining)", "format": "cell-based", "procedure": "as §4, §5, §6, §7"}, "[7]": {"conditions": "500 µM, donor 1, day 3, single wells (Exp, Rep)"}, "[8]": {"conditions": "500 µM, donor 2, day 3, single wells (Exp, Rep)"}, "[9]": {"conditions": "1 mM, donor 1, day 3, single wells (Exp, Rep)"}, "[10]": {"conditions": "1 mM, donor 2, day 3, single wells (Exp, Rep)"}, "[11]": {"conditions": "2 mM, donor 1, day 3, single wells (Exp, Rep)"}}, "note": "Values joined by “and” are separate entries in the source; they are usually repeats but may differ in a detail not shown here. Equal values may be shown once. Where a name gives a salt, the structure may show the parent alone.", "data": [{"compound": "COc1cc(CNC(=O)CCCC/C=C/C(C)C)ccc1O", "note": "[Caps, capsaicin]", "values": [{"measurement": "Duration of alleviation of knee pain", "setting": "[1]", "result": "about 18 weeks"}, {"measurement": "Percentage of cytotoxicity lower than in lysed DRGs", "setting": "rat DRG explants; 3.79 mM, 3-day incubation", "result": 90.2, "unit": "%"}, {"measurement": "Cytotoxicity (%)", "setting": "rat DRG explants; 3.79 mM, male rat DRG explant", "result": 16.4427, "unit": "%"}, {"measurement": "Overall cytotoxicity lower compared to lysed DRGs", "setting": "rat DRG explants", "result": "at least 88%"}, {"measurement": "Cell death", "setting": "[2]", "result": "induced significant cell death"}, {"measurement": "Median axon length ratio (interquartile range)", "setting": "adult rat DRG explants", "result": "0.657 (0.359–0.750) and 0.453 (0.270–0.624)"}]}, {"compound": "C[C@H](CCC(=O)O)C[C@H](C)C[C@H](C)C(=O)/C=C(\\O)[C@H](C)C[C@H](C)C/C=C/[C@@H](C)[C@@H](O)[C@@H](C)[C@@H](O)C[C@@H]1CC[C@@](C)([C@H]2CC[C@@](C)([C@@H](C)O)O2)O1", "note": "[Imy, Ionomycin]", "values": [{"measurement": "cytotoxicity at 3 days, 0.77 µM", "setting": "[3]; 0.77 µM", "result": 8.76, "unit": "%"}, {"measurement": "Cytotoxicity (%)", "setting": "rat DRG explants; 0.77 µM, female rat DRG explant", "result": "6.379% and 11.5202%"}, {"measurement": "Overall cytotoxicity lower compared to lysed DRGs", "setting": "rat DRG explants", "result": "at least 88%"}, {"measurement": "Fibers exhibiting large nerve lesions", "setting": "sciatic nerves", "result": "up to 95%"}, {"measurement": "Change in axon length ratio between timepoints", "setting": "adult rat DRG explants", "result": "no significant differences were observed between timepoints"}, {"measurement": "Decrease in axon length", "setting": "adult rat DRG explants", "result": 10, "unit": "%"}, {"measurement": "Median axon length ratio (interquartile range)", "setting": "adult rat DRG explants", "result": "0.977 (0.852–1.004) and 0.9 (0.75–0.985) and 0.982 (0.854–1.121)"}]}, {"compound": "Cc1ncc(CO)c(CO)c1O", "note": "[Pyr, Pyridoxine hydrochloride]", "values": [{"measurement": "cytotoxicity at 3 days, 500 µM", "setting": "[3]; 500 µM", "result": 5.33, "unit": "%"}, {"measurement": "cytotoxicity at 3 days, 1 mM", "setting": "[3]; 1 mM", "result": 3.24, "unit": "%"}, {"measurement": "Cytotoxicity (%)", "setting": "rat DRG explants; 50 µM, female rat DRG explant", "result": "1.523% and -1.428% and 2.095%"}, {"measurement": "Cytotoxicity (%)", "setting": "rat DRG explants; 500 µM, female rat DRG explant", "result": "8.854% and 7.426%"}, {"measurement": "Cytotoxicity (%)", "setting": "rat DRG explants; 1 mM, female rat DRG explant", "result": "4.951% and 3.523%"}, {"measurement": "AlamarBlue reduction normalized to cell counts compared to PBS control", "setting": "Human NP cells [4]; 500 μM, 1 mM and 2 mM, day 3", "result": "not significantly different between PBS control and all treated groups"}, {"measurement": "AB reduction per cell (%)", "setting": "Human NP cells [4]; [7]", "result": "0.001757% and 0.001402% and 0.001221% and 0.001189% and 0.001666% and 0.001549%"}, {"measurement": "AB reduction per cell (%)", "setting": "Human NP cells [4]; [8]", "result": "0.002098% and 0.001803% and 0.002358% and 0.001696% and 0.002473% and 0.003239%"}, {"measurement": "AB reduction per cell (%)", "setting": "Human NP cells [4]; [9]", "result": "0.001279% and 0.001156% and 0.001657% and 0.001546%"}, {"measurement": "AB reduction per cell (%)", "setting": "Human NP cells [4]; [10]", "result": "0.001937% and 0.002155% and 0.002387% and 0.003301%"}, {"measurement": "AB reduction per cell (%)", "setting": "Human NP cells [4]; [11]", "result": "0.002206% and 0.002078% and 0.002787% and 0.003671% and 0.002259% and 0.001426%"}, {"measurement": "AB reduction per cell (%)", "setting": "Human NP cells [4]; 2 mM, donor 2, day 3, single wells (Exp, Rep)", "result": "0.00138% and 0.001132% and 0.01401% and 0.003735% and 0.006792% and 0.003692%"}, {"measurement": "viability at 3 days", "setting": "[5]", "result": "> 89", "unit": "%"}, {"measurement": "Percent live (%)", "setting": "Human NP cells [6]; [7]", "result": "99.8382% and 99.8845% and 99.1403% and 98.8605% and 99.9471% and 98.2749%"}, {"measurement": "Percent live (%)", "setting": "Human NP cells [6]; [8]", "result": "97.5506% and 96.954% and 96.3405% and 99.1395% and 96.5794% and 98.8823%"}, {"measurement": "Percent live (%)", "setting": "Human NP cells [6]; [9]", "result": "99.8893% and 99.7678% and 99.8269% and 99.7809%"}, {"measurement": "Percent live (%)", "setting": "Human NP cells [6]; [10]", "result": "96.1436% and 95.9726% and 96.9575% and 96.5249%"}, {"measurement": "Percent live (%)", "setting": "Human NP cells [6]; [11]", "result": "98.6699% and 99.5161% and 83.5317% and 86.125% and 97.6421% and 98.8217%"}, {"measurement": "Axonal dieback over time and against solvent control", "setting": "adult rat DRG explants", "result": "did not induce significant axonal dieback"}, {"measurement": "Day on which Caps axon length ratio threshold (0.45) was met", "setting": "adult rat DRG explants", "result": "≤ 2", "unit": "days"}, {"measurement": "Median axon length ratio (interquartile range)", "setting": "adult rat DRG explants", "result": "0.607 (0.418–0.875) and 0.539 (0.317–0.676) and 0.451 (0.347–0.587)"}]}]}
